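These data come from cells grown in 96-well plates and exposed to compound for 48 hours at five concentrations. TGI: total growth inhibition.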
What was measured:
Assay in all cases: NCI anticancer screen, dose series, 48 h
786-0 renal = test system: 786-0 renal
A498 renal = test system: A498 renal
A549 NSCLC = test system: A549 NSCLC
ACHN renal = test system: ACHN renal
BT-549 breast = test system: BT-549 breast
CAKI-1 renal = test system: CAKI-1 renal
CCRF-CEM leukemia = test system: CCRF-CEM leukemia
COLO 205 colon = test system: COLO 205 colon
DU-145 prostate = test system: DU-145 prostate
EKVX NSCLC = test system: EKVX NSCLC
HCC-2998 colon = test system: HCC-2998 colon
HCT-116 colon = test system: HCT-116 colon
HCT-15 colon = test system: HCT-15 colon
HL-60(TB) leukemia = test system: HL-60(TB) leukemia
HOP-62 NSCLC = test system: HOP-62 NSCLC
HS 578T breast = test system: HS 578T breast
HT29 colon = test system: HT29 colon
IGROV1 ovarian = test system: IGROV1 ovarian
K-562 leukemia = test system: K-562 leukemia
KM12 colon = test system: KM12 colon
LOX IMVI melanoma = test system: LOX IMVI melanoma
M14 melanoma = test system: M14 melanoma
MALME-3M melanoma = test system: MALME-3M melanoma
MCF7 breast = test system: MCF7 breast
MDA-MB-231 breast = test system: MDA-MB-231 breast
MDA-MB-435 = test system: MDA-MB-435
MDA-N = test system: MDA-N
MOLT-4 leukemia = test system: MOLT-4 leukemia
NCI-H226 lung = test system: NCI-H226 lung
NCI-H23 lung = test system: NCI-H23 lung
NCI-H460 lung = test system: NCI-H460 lung
NCI-H522 lung = test system: NCI-H522 lung
NCI/ADR-RES ovarian = test system: NCI/ADR-RES ovarian
OVCAR-3 ovarian = test system: OVCAR-3 ovarian
OVCAR-4 ovarian = test system: OVCAR-4 ovarian
OVCAR-5 ovarian = test system: OVCAR-5 ovarian
OVCAR-8 ovarian = test system: OVCAR-8 ovarian
PC-3 prostate = test system: PC-3 prostate
RPMI-8226 leukemia = test system: RPMI-8226 leukemia
RXF 393 renal = test system: RXF 393 renal
SF-268 CNS = test system: SF-268 CNS
SF-295 CNS = test system: SF-295 CNS
SF-539 CNS = test system: SF-539 CNS
SK-MEL-2 melanoma = test system: SK-MEL-2 melanoma
SK-MEL-28 melanoma = test system: SK-MEL-28 melanoma
SK-MEL-5 melanoma = test system: SK-MEL-5 melanoma
SK-OV-3 ovarian = test system: SK-OV-3 ovarian
SN12C renal = test system: SN12C renal
SNB-19 CNS = test system: SNB-19 CNS
SNB-75 CNS = test system: SNB-75 CNS
SR leukemia = test system: SR leukemia
SW-620 colon = test system: SW-620 colon
T-47D breast = test system: T-47D breast
TK-10 renal = test system: TK-10 renal
U251 CNS = test system: U251 CNS
UACC-257 melanoma = test system: UACC-257 melanoma
UACC-62 melanoma = test system: UACC-62 melanoma
UO-31 renal = test system: UO-31 renal
HOP-92 NSCLC = test system: HOP-92 NSCLC

Structure (SMILES): CCN(CC)C1Oc2cc3c(cc2C(c2cccc(OC)c2O)C1C)OCO3 (stereo not drawn)
- TGI (786-0 renal): 26.3 µM
- TGI (A498 renal): 7.24 µM
- TGI (A549 NSCLC): 24.6 µM
- TGI (ACHN renal): 40.4 µM
- TGI (BT-549 breast): > 44.9 µM
- TGI (CAKI-1 renal): 27 µM
- TGI (CCRF-CEM leukemia): 16.3 µM
- TGI (COLO 205 colon): 13.6 µM
- TGI (DU-145 prostate): > 66.7 µM
- TGI (EKVX NSCLC): 62.3 µM
- TGI (HCC-2998 colon): > 46.7 µM
- TGI (HCT-116 colon): 21.1 µM
- TGI (HCT-15 colon): > 53.2 µM
- TGI (HL-60(TB) leukemia): 7.18 µM
- TGI (HOP-62 NSCLC): 21.3 µM
- TGI (HS 578T breast): 18.7 µM
- TGI (HT29 colon): 27.5 µM
- TGI (IGROV1 ovarian): > 56 µM
- TGI (K-562 leukemia): > 100 µM
- TGI (KM12 colon): 16.6 µM
- TGI (LOX IMVI melanoma): 22.2 µM
- TGI (M14 melanoma): 12.6 µM
- TGI (MALME-3M melanoma): 21.7 µM
- TGI (MCF7 breast): > 46 µM
- TGI (MDA-MB-231 breast): > 49.7 µM
- TGI (MDA-MB-435): 4.96 µM
- TGI (MDA-N): 5.82 µM
- TGI (MOLT-4 leukemia): 28 µM
- TGI (NCI-H226 lung): 13.3 µM
- TGI (NCI-H23 lung): 43.5 µM
- TGI (NCI-H460 lung): 21.9 µM
- TGI (NCI-H522 lung): 7.3 µM
- TGI (NCI/ADR-RES ovarian): 53.8 µM
- TGI (OVCAR-3 ovarian): 5.5 µM
- TGI (OVCAR-4 ovarian): > 100 µM
- TGI (OVCAR-5 ovarian): 48.5 µM
- TGI (OVCAR-8 ovarian): > 80.8 µM
- TGI (PC-3 prostate): > 35.8 µM
- TGI (RPMI-8226 leukemia): 13.6 µM
- TGI (RXF 393 renal): 21.2 µM
- TGI (SF-268 CNS): > 54 µM
- TGI (SF-295 CNS): 15.4 µM
- TGI (SF-539 CNS): 6.3 µM
- TGI (SK-MEL-2 melanoma): 27.4 µM
- TGI (SK-MEL-28 melanoma): 42.2 µM
- TGI (SK-MEL-5 melanoma): 13.6 µM
- TGI (SK-OV-3 ovarian): > 61.3 µM
- TGI (SN12C renal): 16.4 µM
- TGI (SNB-19 CNS): 31.4 µM
- TGI (SNB-75 CNS): 23.1 µM
- TGI (SR leukemia): 25.3 µM
- TGI (SW-620 colon): 35.4 µM
- TGI (T-47D breast): > 86 µM
- TGI (TK-10 renal): > 100 µM
- TGI (U251 CNS): 17.9 µM
- TGI (UACC-257 melanoma): > 50.4 µM
- TGI (UACC-62 melanoma): 28.5 µM
- TGI (UO-31 renal): 49.5 µM

Structure (SMILES): COc1cc(C2c3cc(OC)c(OC)c(O)c3C(=O)C3CCC(=O)N32)cc(OC)c1OC (stereo not drawn)
- TGI (786-0 renal): > 100 µM
- TGI (A498 renal): > 100 µM
- TGI (A549 NSCLC): > 100 µM
- TGI (ACHN renal): > 100 µM
- TGI (BT-549 breast): 91.3 µM
- TGI (CAKI-1 renal): > 100 µM
- TGI (COLO 205 colon): 71.9 µM
- TGI (DU-145 prostate): > 100 µM
- TGI (EKVX NSCLC): > 100 µM
- TGI (HCC-2998 colon): > 100 µM
- TGI (HCT-116 colon): > 100 µM
- TGI (HCT-15 colon): > 100 µM
- TGI (HL-60(TB) leukemia): > 100 µM
- TGI (HOP-62 NSCLC): > 100 µM
- TGI (HOP-92 NSCLC): > 100 µM
- TGI (HS 578T breast): > 100 µM
- TGI (HT29 colon): > 100 µM
- TGI (IGROV1 ovarian): > 100 µM
- TGI (K-562 leukemia): > 100 µM
- TGI (KM12 colon): > 100 µM
- TGI (LOX IMVI melanoma): > 100 µM
- TGI (M14 melanoma): > 100 µM
- TGI (MCF7 breast): > 100 µM
- TGI (MDA-MB-231 breast): > 100 µM
- TGI (MDA-MB-435): 39.5 µM
- TGI (MDA-N): 34.5 µM
- TGI (MOLT-4 leukemia): > 100 µM
- TGI (NCI-H226 lung): > 100 µM
- TGI (NCI-H460 lung): > 100 µM
- TGI (NCI-H522 lung): 77.6 µM
- TGI (NCI/ADR-RES ovarian): > 100 µM
- TGI (OVCAR-3 ovarian): > 100 µM
- TGI (OVCAR-4 ovarian): > 100 µM
- TGI (OVCAR-5 ovarian): > 100 µM
- TGI (OVCAR-8 ovarian): 71.4 µM
- TGI (PC-3 prostate): > 100 µM
- TGI (RPMI-8226 leukemia): > 100 µM
- TGI (SF-268 CNS): > 100 µM
- TGI (SF-295 CNS): > 100 µM
- TGI (SF-539 CNS): > 100 µM
- TGI (SK-MEL-2 melanoma): > 100 µM
- TGI (SK-MEL-28 melanoma): > 100 µM
- TGI (SK-MEL-5 melanoma): > 100 µM
- TGI (SK-OV-3 ovarian): > 100 µM
- TGI (SN12C renal): > 100 µM
- TGI (SNB-19 CNS): > 100 µM
- TGI (SNB-75 CNS): > 100 µM
- TGI (SR leukemia): > 100 µM
- TGI (SW-620 colon): > 100 µM
- TGI (T-47D breast): > 100 µM
- TGI (TK-10 renal): > 100 µM
- TGI (U251 CNS): > 100 µM
- TGI (UACC-257 melanoma): > 100 µM
- TGI (UACC-62 melanoma): > 100 µM

Structure (SMILES): C1=CN2C[n+]3ccc4ccccc4c3N=C2c2ccccc21
- TGI (786-0 renal): 10.3 µM
- TGI (A549 NSCLC): 21.6 µM
- TGI (ACHN renal): 70.5 µM
- TGI (BT-549 breast): 20.9 µM
- TGI (CAKI-1 renal): 50.2 µM
- TGI (CCRF-CEM leukemia): 23.7 µM
- TGI (COLO 205 colon): 4.26 µM
- TGI (DU-145 prostate): 25.2 µM
- TGI (EKVX NSCLC): 38.8 µM
- TGI (HCT-116 colon): > 100 µM
- TGI (HCT-15 colon): > 100 µM
- TGI (HL-60(TB) leukemia): 9.1 µM
- TGI (HOP-62 NSCLC): 32.5 µM
- TGI (HOP-92 NSCLC): 7.92 µM
- TGI (HS 578T breast): 30.4 µM
- TGI (HT29 colon): 10.4 µM
- TGI (IGROV1 ovarian): 20.2 µM
- TGI (K-562 leukemia): 12.5 µM
- TGI (KM12 colon): 10.7 µM
- TGI (M14 melanoma): 11.7 µM
- TGI (MALME-3M melanoma): 3.46 µM
- TGI (MCF7 breast): 3.71 µM
- TGI (MDA-MB-231 breast): 23.6 µM
- TGI (MDA-MB-435): 7.24 µM
- TGI (MDA-N): 7.59 µM
- TGI (MOLT-4 leukemia): 13.3 µM
- TGI (NCI-H23 lung): 21.4 µM
- TGI (NCI-H460 lung): 16.4 µM
- TGI (NCI-H522 lung): 5.09 µM
- TGI (NCI/ADR-RES ovarian): > 100 µM
- TGI (OVCAR-3 ovarian): 3.51 µM
- TGI (OVCAR-5 ovarian): 47 µM
- TGI (OVCAR-8 ovarian): 24.9 µM
- TGI (PC-3 prostate): 31.1 µM
- TGI (RPMI-8226 leukemia): 11.8 µM
- TGI (SF-268 CNS): 8.35 µM
- TGI (SF-295 CNS): 24 µM
- TGI (SF-539 CNS): 14.8 µM
- TGI (SK-MEL-2 melanoma): 9.33 µM
- TGI (SK-MEL-5 melanoma): 1.5 µM
- TGI (SK-OV-3 ovarian): 47.8 µM
- TGI (SN12C renal): 9.52 µM
- TGI (SNB-19 CNS): 33.3 µM
- TGI (SR leukemia): 4.66 µM
- TGI (SW-620 colon): 34.2 µM
- TGI (T-47D breast): 5.29 µM
- TGI (TK-10 renal): 43 µM
- TGI (U251 CNS): 10.2 µM
- TGI (UACC-257 melanoma): 20.7 µM
- TGI (UACC-62 melanoma): 4.32 µM
- TGI (UO-31 renal): 69.3 µM

Source: PubChem BioAssay (NCI)
